This is an account of results in patent US10035801B2, “Pyrazolo compounds and uses thereof” (CONSTELLATION PHARMACEUTICALS, INC., priority 2013, dated 2018).

The target in this test is T1, KDM5A (Homo sapiens, UniProt P29375).
T1 construct: Full length KDM5A enzyme was expressed and purified inhouse; made in house
As to the kind of experiment: KDM5 enzyme assay, KDM5A HTRF (Example 463). The test is classed as biochemical. The conditions noted are these: compounds of Examples 1-432; read-out: Example 463 Assay KDM5A HTRF IC50. (TR-FRET usually uses a lanthanide donor and a delayed reading to cut background.)

T1 sequence (P29375 whole entry): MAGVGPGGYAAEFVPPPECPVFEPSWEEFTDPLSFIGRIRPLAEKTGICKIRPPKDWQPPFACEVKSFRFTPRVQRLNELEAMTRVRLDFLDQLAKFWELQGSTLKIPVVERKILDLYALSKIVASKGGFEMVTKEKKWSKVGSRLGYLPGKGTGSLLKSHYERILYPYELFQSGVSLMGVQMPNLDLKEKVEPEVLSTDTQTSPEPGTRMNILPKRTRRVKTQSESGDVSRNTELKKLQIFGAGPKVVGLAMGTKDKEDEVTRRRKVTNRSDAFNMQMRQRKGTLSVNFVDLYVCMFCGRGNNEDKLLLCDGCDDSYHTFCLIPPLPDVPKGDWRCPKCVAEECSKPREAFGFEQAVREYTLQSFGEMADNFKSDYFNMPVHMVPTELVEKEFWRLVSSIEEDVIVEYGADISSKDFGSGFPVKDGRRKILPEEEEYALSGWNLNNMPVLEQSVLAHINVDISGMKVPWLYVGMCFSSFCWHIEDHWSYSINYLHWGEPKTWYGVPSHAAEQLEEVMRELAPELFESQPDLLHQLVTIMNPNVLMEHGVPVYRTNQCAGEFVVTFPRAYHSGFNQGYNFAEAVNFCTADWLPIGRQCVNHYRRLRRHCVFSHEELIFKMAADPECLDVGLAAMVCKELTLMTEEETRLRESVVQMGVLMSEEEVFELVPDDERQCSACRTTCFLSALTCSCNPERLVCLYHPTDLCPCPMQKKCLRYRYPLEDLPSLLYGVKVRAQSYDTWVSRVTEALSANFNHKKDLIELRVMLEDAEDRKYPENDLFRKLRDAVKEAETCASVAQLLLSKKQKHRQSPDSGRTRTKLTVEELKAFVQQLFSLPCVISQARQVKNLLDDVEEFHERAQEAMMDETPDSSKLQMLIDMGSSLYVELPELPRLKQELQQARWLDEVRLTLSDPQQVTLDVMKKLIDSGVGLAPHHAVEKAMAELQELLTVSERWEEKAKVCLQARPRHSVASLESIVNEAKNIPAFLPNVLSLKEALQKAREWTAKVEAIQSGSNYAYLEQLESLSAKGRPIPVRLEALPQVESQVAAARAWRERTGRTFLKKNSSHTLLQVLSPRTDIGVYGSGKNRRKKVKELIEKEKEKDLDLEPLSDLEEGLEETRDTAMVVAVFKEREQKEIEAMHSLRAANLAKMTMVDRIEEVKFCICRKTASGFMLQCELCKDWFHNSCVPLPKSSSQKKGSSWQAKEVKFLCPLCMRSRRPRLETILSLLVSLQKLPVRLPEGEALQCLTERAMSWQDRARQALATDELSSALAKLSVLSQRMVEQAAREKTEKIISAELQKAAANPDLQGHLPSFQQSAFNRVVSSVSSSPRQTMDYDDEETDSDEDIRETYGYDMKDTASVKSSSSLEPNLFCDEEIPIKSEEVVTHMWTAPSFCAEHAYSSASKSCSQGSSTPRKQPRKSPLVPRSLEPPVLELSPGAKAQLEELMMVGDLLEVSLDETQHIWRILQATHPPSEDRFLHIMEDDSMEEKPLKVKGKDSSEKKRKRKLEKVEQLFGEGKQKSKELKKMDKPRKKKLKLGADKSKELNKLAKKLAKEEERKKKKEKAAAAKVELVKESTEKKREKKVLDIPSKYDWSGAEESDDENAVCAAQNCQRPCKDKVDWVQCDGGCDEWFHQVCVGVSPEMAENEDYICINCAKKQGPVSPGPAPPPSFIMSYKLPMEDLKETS

For the molecule `CC(C)c1c(-c2ccnn2CC2CC2)[nH]c2c(C#N)cnn2c1=O` (single isomer, unassigned) [Example 15, 5-(1-(cyclopropylmethyl)-1H-pyrazol-5-yl)-6-isopropyl-7-oxo-4,7-dihydropyrazolo[1,5-a]pyrimidine-3-carbonitrile], the IC50 – broadly, the concentration at which inhibition is half-maximal – amounted to 47 nM.
Next, `CC(C)c1c(-c2ccn(CC3CC3)n2)[nH]c2c(C#N)cnn2c1=O` (single isomer, unassigned) [Example 16, 5-(1-(cyclopropylmethyl)-1H-pyrazol-3-yl)-6-isopropyl-7-oxo-4,7-dihydropyrazolo[1,5-a]pyrimidine-3-carbonitrile]: 11 nM.
Consider `CC(C)NC(=O)c1ccc(-c2[nH]c3c(C#N)cnn3c(=O)c2C(C)C)cc1` [Compound 345], for which the IC50 came to 140 nM.
Take `CC(C)c1c(-c2ccc(N3CCN(C)CC3)cc2)[nH]c2c(C#N)cnn2c1=O` [Compound 346]: the IC50 was determined as 40 nM.
Next, `CC(C)c1c(-c2cc(Cl)cc(C#N)c2)[nH]c2c(C#N)cnn2c1=O` [Compound 347]: 24 nM; `CC(C)c1c(-c2cccc(CNS(C)(=O)=O)c2)[nH]c2c(C#N)cnn2c1=O` [Compound 348]: 14 nM.
Regarding `CC(C)c1c(-c2cccc(-c3ccn[nH]3)c2)[nH]c2c(C#N)cnn2c1=O` [Compound 349], the IC50 was 14 nM.
For `CC(C)c1c(-c2ccc(S(C)(=O)=O)cc2)[nH]c2c(C#N)cnn2c1=O` [Compound 350] the value was 20 nM.
Next, `CC(C)c1c(-c2ccc(C(=O)NC3CC3)cc2)[nH]c2c(C#N)cnn2c1=O` [Compound 351]: 27 nM; `CC(C)c1c(-c2cnn(CCF)c2)[nH]c2c(C#N)cnn2c1=O` [Compound 352]: 27 nM; `CC(C)c1c(-c2cccc(-c3ccccc3)c2)[nH]c2c(C#N)cnn2c1=O` [Compound 353]: 14 nM.
Next, `CC(C)c1c(-c2ccc(C(F)(F)F)c(C3CC3)c2)[nH]c2c(C#N)cnn2c1=O` [Compound 354]: 77 nM; `CC(C)c1c(-c2cccc(OCC3CC3)c2)[nH]c2c(C#N)cnn2c1=O` [Compound 355]: 40 nM.
As to `CC(C)c1c(-c2cccc(OCc3ccccc3)c2)[nH]c2c(C#N)cnn2c1=O` [Compound 356], the IC50 turned out to be 44 nM.
For `CC(C)c1c(-c2cccc(CN3CCOCC3)c2)[nH]c2c(C#N)cnn2c1=O` [Compound 357] the value was 22 nM.
For `CC(C)c1c(-c2cccc(COc3ccccc3)c2)[nH]c2c(C#N)cnn2c1=O` [Compound 358] the value was 25 nM; for `CC(C)c1c(-c2cnn(-c3cccc(F)c3)c2)[nH]c2c(C#N)cnn2c1=O` [Compound 359], 20 nM.
Consider `CC(C)c1c(/C=C/C2CC2)[nH]c2c(C#N)cnn2c1=O` [Compound 360], for which the concentration for half-maximal inhibition (IC50) came to 28 nM.
Next, `CC(C)c1c(-c2ccc(C(F)(F)F)nc2)[nH]c2c(C#N)cnn2c1=O` [Compound 361]: 52 nM; `CC(C)c1c(-c2cnn(-c3ccc(F)cc3)c2)[nH]c2c(C#N)cnn2c1=O` [Compound 362]: 24 nM.
For `Cc1nc(C)c(-c2[nH]c3c(C#N)cnn3c(=O)c2C(C)C)s1` [Compound 363] the value was 25 nM.
For `CCCn1cc(-c2[nH]c3c(C#N)cnn3c(=O)c2C(C)C)cn1` [Compound 364] the value was 18 nM; for `CCCCn1cc(-c2[nH]c3c(C#N)cnn3c(=O)c2C(C)C)cn1` [Compound 365], 18 nM.
With `CC(C)c1c(-c2cnn(CCNc3ccccc3)c2)[nH]c2c(C#N)cnn2c1=O` [Compound 366], the 50% inhibitory concentration (IC50) was determined as 18 nM.
Next, `CC(C)c1c(-c2ccc(C(N)=O)cc2)[nH]c2c(C#N)cnn2c1=O` [Compound 367]: 25 nM; `CNC(=O)c1ccc(-c2[nH]c3c(C#N)cnn3c(=O)c2C(C)C)cc1` [Compound 368]: 75 nM; `CNC(=O)c1ccc(-c2[nH]c3c(C#N)cnn3c(=O)c2C(C)C)cc1F` [Compound 369]: 85 nM.
Next, `CC(C)c1c(-c2cnn(CCN3CC(F)(F)C3)c2)[nH]c2c(C#N)cnn2c1=O` [Compound 370]: 8 nM.
Regarding `CC(C)c1c(-c2cnn(CCN3CCC(F)(F)C3)c2)[nH]c2c(C#N)cnn2c1=O` [Compound 371], the concentration for half-maximal inhibition (IC50) amounted to 11 nM.
Consider `CC(C)c1c(-c2cnn(CCNCC(F)(F)F)c2)[nH]c2c(C#N)cnn2c1=O` [Compound 372], for which the IC50 turned out to be 15 nM.
Next, `C/C=C/c1[nH]c2c(C#N)cnn2c(=O)c1C(C)C` [Compound 373]: 24 nM; `CC(=O)Nc1cccc(-c2[nH]c3c(C#N)cnn3c(=O)c2C(C)C)c1` [Compound 374]: 38 nM; `CC(C)c1c(-c2cccc(NS(C)(=O)=O)c2)[nH]c2c(C#N)cnn2c1=O` [Compound 375]: 19 nM.
For `CC(C)c1c(-c2ccc(C(=O)N3CCOCC3)cc2)[nH]c2c(C#N)cnn2c1=O` [Compound 376] the value was 19 nM; for `CC(=O)N1CCN(c2ccc(-c3[nH]c4c(C#N)cnn4c(=O)c3C(C)C)cc2)CC1` [Compound 377], 22 nM; for `CC(C)c1c(-c2cnn(CC(F)F)c2)[nH]c2c(C#N)cnn2c1=O` [Compound 378], 14 nM.
Next, `CC(C)c1ccc(-c2[nH]c3c(C#N)cnn3c(=O)c2C(C)C)o1` [Compound 379]: 11 nM.
Turning to `CC(C)c1c(-c2cnn(C3CCC(F)(F)C3)c2)[nH]c2c(C#N)cnn2c1=O` (stereo not drawn) [Compound 380], the IC50 turned out to be 48 nM.
As to `CC(C)c1c(-c2cnn([C@H]3CC[C@@H](O)C3)c2)[nH]c2c(C#N)cnn2c1=O` [Compound 381], the IC50 came to 30 nM.
For `CC(C)c1c(-c2cnn([C@H]3CC[C@H](O)C3)c2)[nH]c2c(C#N)cnn2c1=O` [Compound 382] the value was 48 nM; for `CC(C)c1c(-c2cccc(-c3cn[nH]c3)c2)[nH]c2c(C#N)cnn2c1=O` [Compound 383], 31 nM.
For `CC(C)c1c(-c2ccc(Br)o2)[nH]c2c(C#N)cnn2c1=O` [Compound 384] the value was 13 nM; for `CC(C)c1c(-c2cccc(Nc3ccccc3)c2)[nH]c2c(C#N)cnn2c1=O` [Compound 385], 21 nM; for `Cc1ncc(-c2[nH]c3c(C#N)cnn3c(=O)c2C(C)C)s1` [Compound 386], 12 nM.
Next, `CC(C)c1c(-c2cccc(C#Cc3ccccc3)c2)[nH]c2c(C#N)cnn2c1=O` [Compound 387]: 130 nM; `CC(C)c1c(-c2cccc(CCc3ccccc3)c2)[nH]c2c(C#N)cnn2c1=O` [Compound 388]: 25 nM; `CC(C)c1c(-c2cnn(C3CCC(F)C3)c2)[nH]c2c(C#N)cnn2c1=O` (stereo not drawn) [Compound 389]: 33 nM.
On to `COCC(C)(C)n1cc(-c2[nH]c3c(C#N)cnn3c(=O)c2C(C)C)cn1` [Compound 390], for which the IC50 stood at 55 nM.
For `C=CC(=O)N1CC(n2cc(-c3[nH]c4c(C#N)cnn4c(=O)c3C(C)C)cn2)C1` [Compound 391] the value was 11 nM.
For `CCC(=O)N1CC(n2cc(-c3[nH]c4c(C#N)cnn4c(=O)c3C(C)C)cn2)C1` [Compound 392] the value was 20 nM; for `CC(C)c1c(-c2ccc(=O)[nH]c2)[nH]c2c(C#N)cnn2c1=O` [Compound 393], 12 nM.
For `CC(C)c1c(-c2cccc(/C=C/c3ccccc3)c2)[nH]c2c(C#N)cnn2c1=O` [Compound 394] the value was 20 nM; for `CC(C)c1c(-c2ccc(N3CCNCC3)cc2)[nH]c2c(C#N)cnn2c1=O` [Compound 395], 10 nM; for `CC(C)c1c(-c2cnn(C(C)(C)CF)c2)[nH]c2c(C#N)cnn2c1=O` [Compound 396], 34 nM.
With `CC(C)c1c(-c2c[nH]nc2C(F)(F)F)[nH]c2c(C#N)cnn2c1=O` [Compound 397], the IC50 came to 32 nM.
For `Cc1cc(C)cc(-c2[nH]c3c(C#N)cnn3c(=O)c2C(C)C)c1` [Compound 398] the value was 41 nM; for `CC(C)c1c(-c2ccc(S(=O)(=O)N3CCOCC3)cc2)[nH]c2c(C#N)cnn2c1=O` [Compound 399], 54 nM.
Next, `CC(C)c1c(-c2cccc(C(=O)N3CCN(C)CC3)c2)[nH]c2c(C#N)cnn2c1=O` [Compound 400]: 35 nM; `CC(C)c1c(-c2cccc(C(C)(C)O)c2)[nH]c2c(C#N)cnn2c1=O` [Compound 401]: 39 nM.
For `Cc1nn(C(C)C)cc1-c1[nH]c2c(C#N)cnn2c(=O)c1C(C)C` [Compound 402] the value was 58 nM; for `Cc1c(-c2[nH]c3c(C#N)cnn3c(=O)c2C(C)C)cnn1C(C)C` [Compound 403], 57 nM.
Regarding `C=CC(C)c1c(-c2ccccc2)[nH]c2c(C#N)cnn2c1=O` (stereo not drawn) [Compound 404], the 50% inhibitory concentration (IC50) came out at 18 nM.
As to `CC(C)c1c(-c2cc(C3CC3)n[nH]2)[nH]c2c(C#N)cnn2c1=O` [Compound 405], the half-maximal inhibitory concentration (IC50) is 12 nM.
Next, `COC(=O)c1cc(-c2[nH]c3c(C#N)cnn3c(=O)c2C(C)C)c[nH]1` [Compound 406]: 15 nM.
Next, `CC(C)c1c(-c2cc(C3CC3)nn2C(C)C)[nH]c2c(C#N)cnn2c1=O` [Compound 407]: 48 nM.
Next, `CC(C)c1c(-c2cc(C3CC3)n(C(C)C)n2)[nH]c2c(C#N)cnn2c1=O` [Compound 408]: 150 nM; `COC(=O)c1cc(-c2[nH]c3c(C#N)cnn3c(=O)c2C(C)C)cn1C(C)C` [Compound 409]: 44 nM.
In the case of `CC(C)c1c(-c2cc(C(F)(F)F)nn2C)[nH]c2c(C#N)cnn2c1=O` [Compound 410], the IC50 amounted to 39 nM.
In the case of `CC(C)c1c(-c2ccn(C(C)C)n2)[nH]c2c(C#N)cnn2c1=O` [Compound 411], the IC50 came to 35 nM.
For `CC(C)c1c(-c2cc(C3CC3)n(C3CCCC3)n2)[nH]c2c(C#N)cnn2c1=O` [Compound 412] the value was 46 nM; for `CC(C)c1c(-c2cc(C3CC3)nn2C2CCCC2)[nH]c2c(C#N)cnn2c1=O` [Compound 413], 110 nM.
For `CC(C)c1c(-c2ccn(C3CCCC3)n2)[nH]c2c(C#N)cnn2c1=O` [Compound 414] the value was 14 nM.
